Source: patent US20250221413A1, “Use and Preparation Method of Sulfoxamyl, and Oxidation System” (priority 2023, published 2025)
≈ marks a conversion by molar mass, not a printed value. Where “and” joins values, the source holds several entries; their conditions need not be identical. Equal entries are not always repeated. Entries after “also recorded” stand apart in the source; their conditions may differ.

How the values were obtained:
[1] = Acute skin toxicity test (limit test); type: in vivo, SD rats; settings: both sexes, rat, in vivo, topical, 2000 mg/kg; SD rats, 24 h exposure, 14 days observation; read-out: acute percutaneous toxicity LD50
Protocol: (§1) Materials: the test agent 98% sulfoxamyl technical, batch number 20230708-1, was provided by Ningxia Hugerise Chemical Co., Ltd. Experimental animals: SPF-grade SD rats, half male and half female, weighing 180 g to 220 g, were provided by Jinan Pengyue Experimental Animal Breeding Co., Ltd., license number SCXK (Lu) 20190003. Rearing environment: the rats were housed in an SPF-grade animal room with free access to water and food, a temperature of 20° C. to 25° C., a humidity of 40% to 60%, and a 12 h/12 h light cycle. Feed: conventional pellet feed was provided by Jinan Pengyue Experimental Animal Breeding Co., Ltd.
(§2) The test was conducted in accordance with “Toxicological test methods of pesticides for registration, GB15670.5-2017”, “Acute toxicity test, GB15193.3-2003” and relevant acute toxicity research data.
(§3) Method: the sulfoxamyl was ground into powder, passed through a 200-mesh sieve, and fully moistened with 0.5% tragacanth solution to ensure desirable contact between the drug and the skin. The dose limit of the drug's transdermal toxicity was preliminarily determined through a limit test. According to the “Toxicological test methods of pesticides for registration, GB/T 15670.5-2017”, 2,000 mg/kg was selected as the dose limit. 10 SD rats were selected, half male and half female. After removing the fur and preparing the skin on the midline of the rats' backs, the prepared skin area was 36 cm^2 to 40 cm^2. The drug was evenly applied to the fur-removed area and covered and fixed with multiple layers of sterile gauze; after 24 h of exposure to the poison, the residual drug on the skin was removed; the rats were observed once a day for 14 consecutive days, and their poisoning reaction, development process, and death were recorded.

SD rats = experiment: Acute skin toxicity test (limit test); type: in vivo
Protocol: as §1, §2, §3

[2] = tested on: Meloidogyne incognita eggs; experiment: Inhibitory effect on hatching of Meloidogyne incognita eggs; type: in vivo
Text: Materials: the tested nematodes were collected from three different areas, namely cucumber crops in Dawenkou Town, Tai'an City, Shandong Province, and were all identified as southern root-knot nematodes (Meloidogyne incognita). The diseased roots were washed, cut into small sections of 0.5 cm to 1 cm, rinsed in 1% NaClO solution for about 30 s to 60 s, and rinsed with 200-mesh and 500-mesh sieves to collect nematode eggs for later use.
The agent was 98% sulfoxamyl technical, and the comparison agents were 96% oxamyl technical and 87% fosthiazate technical.

[3] = Meloidogyne incognita, 168 h, egg hatching, 7 d

In the case of `CNC(=O)O/N=C(/C(=O)N(C)C)S(C)(=O)=O` [Sulfoxamyl, N,N-dimethyl-2-[[[(methylamino)carbonyl]oxy]imino]-2-(methylsulfonyl)acetamide], the LD50 at 14 days [1] is reported as over 2000 mg/kg, the “percutaneous toxicity, in words” value (SD rats; 2,000 mg/kg) is reported as “no percutaneous toxicity” and the Main clinical symptom (SD rats; 2,000 mg/kg on skin, 10 SD rats) is reported as “skin is intact, normal in color, and without redness or swelling”. The deaths (SD rats; 2,000 mg/kg on skin, 10 SD rats, 14 days) was “none of the 10 rats die”, the Main clinical symptom (SD rats; 2,000 mg/kg on skin, 10 SD rats, listed as sulfoxamyl) was “Normal” and the “toxicity level (acute percutaneous)” value (SD rats; GB15670-1995 classification) was “low toxic; also recorded: Low Toxicity”. The “Number of hatched eggs/7 d” value ([2]; 6.25 mg/L, 7 d) was 102 and 92 and 96, the “Number of unhatched eggs/7 d” value ([2]; 6.25 mg/L, 7 d) was 31 and 25 and 33 and the “Number of hatched eggs/7 d” value ([2]; 12.5 mg/L, 7 d) was 83 and 85 and 88. The “Number of unhatched eggs/7 d” value ([2]; 12.5 mg/L, 7 d) was 32 and 33 and 40, the “Number of hatched eggs/7 d” value ([2]; 25 mg/L, 7 d) was 85 and 79 and 86 and the “Number of unhatched eggs/7 d” value ([2]; 25 mg/L, 7 d) was 45 and 41 and 38. For the same molecule, the “Number of hatched eggs/7 d” value ([2]; 50 mg/L, 7 d) was 57 and 55 and 49, the “Number of unhatched eggs/7 d” value ([2]; 50 mg/L, 7 d) was 81 and 75 and 77 and the “Number of hatched eggs/7 d” value ([2]; 100 mg/L, 7 d) was 44 and 40 and 42. For the same molecule, the “Number of unhatched eggs/7 d” value ([2]; 100 mg/L, 7 d) was 93 and 85 and 88, the IC50 [2, 3] was 59.5 µg/mL (≈ 237 µM) and the IC90 [2, 3] was 511 µg/mL (≈ 2030 µM). The “inhibitory effect on hatching of nematode eggs, in words” value ([2]; in vivo) was “desirable inhibitory effect”.
